We go through one molecule from PMC5826917, “A small molecule inhibitor of Nicotinamide N-methyltransferase for the treatment of metabolic disorders” (Scientific Reports, 2018).

One may read the fraction remaining as the share of the starting amount still present when the sample was taken. Read a low fraction remaining as more turnover. For orientation: IC50 means the concentration at which inhibition is half-maximal. A lower IC50 goes with greater potency in that assay.

Series [1] relates to mice with diet-induced obesity (DIO). Kind of series: Chronic efficacy study in diet-induced obesity (DIO) mice. The format is in vivo, C57BL6/N mice. The procedure: Samples for MNA were analyzed employing a fit-for-purpose LC-MS/MS method. PE-Sciex API-4000 triple quadrupole (PerkinElmerSciex Instruments, Boston, MA) mass spectrometer was employed for this analysis. Samples (5 µL) were injected onto Kinetex HILIC (50 × 4.6 mm, 2.6 µm; Phenomenex, Torrance, CA, USA) column connected to Shimadzu VP (Shimadzu, Japan) LC system. The gradient mobile phase mixture of 0.2% formic acid and acetonitrile was delivered at a flow rate of 0.45 ml min-1 into the mass spectrometer electrospray ionization (ESI) chamber. Quantitation was achieved by MS/MS detection in positive ion mode for MNA and internal standard (d4–MNA). Detection of the ions was performed in the multiple reaction monitoring (MRM) mode, monitoring the transition of the m/z 137 precursor ion to the m/z 92 product ion for MNA and m/z 141 precursor ion to the m/z 84 product ion for d4-MNA (internal standard).
A simple protein precipitation extraction method was followed for extraction of N-methylnicotinamide from plasma and various tissue homogenate samples. The tissue samples were homogenized with 1:3 proportions of phosphate buffer saline (PBS) and this homogenate was used for N-Methylnicotinamide determinations. To an aliquot of ~50 μL of plasma/ liver homogenate/ adipose tissue homogenate samples ~300 µl of acetonitrile containing IS (d4-MNA) solution was added, followed by vortex for ~3 minutes and centrifuged for 10 minutes at 14,000 rpm. The supernatant was separated and transferred to pre-labeled HPLC vials and analyzed by LC-MS/MS system.
Male C57BL6/N (Vivo Bio Tech Ltd, India), ob/ob (B6.V-Lepob/OlaHsd) and its lean control (Envigo laboratories Inc, USA) and db/db (BKS.Cg- + Leprdb/ + Leprdb/OlaHsd) and its lean control (Envigo laboratories Inc, USA) were housed in individually ventilated cages (n = 5/cage) under standard laboratory conditions. The study room environment was maintained at a temperature of 21–24 °C and, relative humidity at 40–70%. The animal rooms were maintained under 12 h light and dark cycle. Animals were provided with ad libitum access to water and food (except where noted otherwise, e.g. during fasting prior for glucose tolerance tests, fasting prior to terminal sacrifice). Animals were acclimatized for 1 week before initiation of studies. For Diet induced obesity (DIO) mice study, C57BL6/N mice were maintained on rodents chow diet (Teklad; Harlan) or HFD (60% Kcal; Research diet) for 14 weeks before study initiation and throughout the study period. ob/ob and db/db mice and their lean controls were maintained on rodents chow diet (Teklad; Harlan). All the experiments were approved by Institutional Animal Ethics Committee (IAEC) of Jubilant Biosys Ltd, India.
Lean control + Vehicle and HFD + Vehicle Control groups (G1 and G2) mice were administered with vehicle. Dose formulations of HFD + JBSNF-000088, 50 mg kg^−1, po, bid were administered at dose volume of 5 mL kg^−1 body weight to G3 mice. Similar pattern was followed for ob/ob mice and db/db mice studies. The dose volume for individual animals was calculated based on the most recently recorded body weight during the study period. […] Cage side observations of animals for visible clinical signs, was carried out once daily throughout the study period. Individual animal body weights were recorded twice weekly during the study period.
The ob/ob mice were 12 weeks of age at the start of the study and db/db mice were 8 weeks of age at the start of the study. DIO mice were 20 weeks of age at the start of the study. In each study, non-diabetic lean mice comprised the control group which received vehicle (0.5% w/v HEC and 0.5% v/v Tween 80) and obese or diabetic mice were randomly assigned to two groups based on body weight and unfasted glucose which received either vehicle (0.5% w/v HEC and 0.5% v/v Tween 80) or JBSNF-000088, 50 mg kg^−1, po, bid for 30 days.

For series [2], the target named is Acetylcholinesterase (AChE) (Homo sapiens, UniProt P22303). Kind of series: Selectivity panel: AChE. The format is biochemical. To be noted: read-out: I% (antagonistic or inhibitory), AChE. The method, then: Supplement 41598_2018_22081_MOESM1_ESM.docx, table 2: Supplementary table 2: Selectivity profile of JBSNF-000088 (at 10 µM) vs a panel of 34 receptors, channels and enzymes. | column: I% (antagonistic or inhibitory)

A further series is described as follows: in vitro. The settings on record: mouse, microsomes, Metabolic stability mouse microsomes (% remaining).
For series [3] the following is noted: 0.5 h.
For the next series, the target named is T1, NNMT (Homo sapiens, UniProt P40261).
T1 sequence (P40261 1-264): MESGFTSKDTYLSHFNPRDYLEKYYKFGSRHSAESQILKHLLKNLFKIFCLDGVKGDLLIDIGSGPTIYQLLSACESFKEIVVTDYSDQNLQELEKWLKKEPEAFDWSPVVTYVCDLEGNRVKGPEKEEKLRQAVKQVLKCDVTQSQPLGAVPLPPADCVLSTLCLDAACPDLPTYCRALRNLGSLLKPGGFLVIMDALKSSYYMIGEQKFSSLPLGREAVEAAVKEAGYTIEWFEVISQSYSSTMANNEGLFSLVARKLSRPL
Kind of series: biochemical. More on the design: The full length NNMT proteins (1–264 amino acids) of human & mouse; 6 × His tag (N); TEV cleavage site (ENLYFQG) (N); made in house; host or cells: E. coli Rosetta2(DE3)pLysS. The procedure:
PE-Sciex API-4000 triple quadrupole (PerkinElmerSciex Instruments, Boston, MA) mass spectrometer was employed for this analysis. […] Detection of the ions was performed in the multiple reaction monitoring (MRM) mode, monitoring the transition of the m/z 137 precursor ion to the m/z 92 product ion for MNA and m/z 141 precursor ion to the m/z 84 product ion for d4-MNA (internal standard).
The supernatant was separated and transferred to pre-labeled HPLC vials and analyzed by LC-MS/MS system.
The final assay reaction mixture contained a buffer of 100 mM Tris Hcl pH 7.5, 0.04% BSA, 2 mM dithiothreitol and 1% DMSO.

In a further series the target is NaV1.5 (Homo sapiens, UniProt Q14524). Briefly: NaV1.5 assay. To be noted: tested at 30 µM, result printed @ 10 µM; data not shown.
Series [4] has as its target Adrenoreceptor beta 2 (ADRB2) (Homo sapiens, UniProt P07550). Kind of series: Selectivity panel: ADRB2. Format: cell-based.

Sequence of Adrenoreceptor beta 2 (ADRB2) (P07550 whole entry): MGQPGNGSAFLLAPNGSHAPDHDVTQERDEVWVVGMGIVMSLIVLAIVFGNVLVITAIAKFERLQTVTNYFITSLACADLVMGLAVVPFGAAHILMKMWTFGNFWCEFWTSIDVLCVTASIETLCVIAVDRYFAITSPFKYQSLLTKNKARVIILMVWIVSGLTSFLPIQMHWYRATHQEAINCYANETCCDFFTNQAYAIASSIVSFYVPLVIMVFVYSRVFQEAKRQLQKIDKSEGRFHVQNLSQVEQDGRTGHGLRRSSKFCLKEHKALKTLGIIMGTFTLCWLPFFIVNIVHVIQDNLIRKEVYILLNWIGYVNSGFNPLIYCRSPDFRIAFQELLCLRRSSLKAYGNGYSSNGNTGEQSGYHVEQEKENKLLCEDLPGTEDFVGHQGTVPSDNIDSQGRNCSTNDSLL
Sequence of NaV1.5 (Q14524 whole entry): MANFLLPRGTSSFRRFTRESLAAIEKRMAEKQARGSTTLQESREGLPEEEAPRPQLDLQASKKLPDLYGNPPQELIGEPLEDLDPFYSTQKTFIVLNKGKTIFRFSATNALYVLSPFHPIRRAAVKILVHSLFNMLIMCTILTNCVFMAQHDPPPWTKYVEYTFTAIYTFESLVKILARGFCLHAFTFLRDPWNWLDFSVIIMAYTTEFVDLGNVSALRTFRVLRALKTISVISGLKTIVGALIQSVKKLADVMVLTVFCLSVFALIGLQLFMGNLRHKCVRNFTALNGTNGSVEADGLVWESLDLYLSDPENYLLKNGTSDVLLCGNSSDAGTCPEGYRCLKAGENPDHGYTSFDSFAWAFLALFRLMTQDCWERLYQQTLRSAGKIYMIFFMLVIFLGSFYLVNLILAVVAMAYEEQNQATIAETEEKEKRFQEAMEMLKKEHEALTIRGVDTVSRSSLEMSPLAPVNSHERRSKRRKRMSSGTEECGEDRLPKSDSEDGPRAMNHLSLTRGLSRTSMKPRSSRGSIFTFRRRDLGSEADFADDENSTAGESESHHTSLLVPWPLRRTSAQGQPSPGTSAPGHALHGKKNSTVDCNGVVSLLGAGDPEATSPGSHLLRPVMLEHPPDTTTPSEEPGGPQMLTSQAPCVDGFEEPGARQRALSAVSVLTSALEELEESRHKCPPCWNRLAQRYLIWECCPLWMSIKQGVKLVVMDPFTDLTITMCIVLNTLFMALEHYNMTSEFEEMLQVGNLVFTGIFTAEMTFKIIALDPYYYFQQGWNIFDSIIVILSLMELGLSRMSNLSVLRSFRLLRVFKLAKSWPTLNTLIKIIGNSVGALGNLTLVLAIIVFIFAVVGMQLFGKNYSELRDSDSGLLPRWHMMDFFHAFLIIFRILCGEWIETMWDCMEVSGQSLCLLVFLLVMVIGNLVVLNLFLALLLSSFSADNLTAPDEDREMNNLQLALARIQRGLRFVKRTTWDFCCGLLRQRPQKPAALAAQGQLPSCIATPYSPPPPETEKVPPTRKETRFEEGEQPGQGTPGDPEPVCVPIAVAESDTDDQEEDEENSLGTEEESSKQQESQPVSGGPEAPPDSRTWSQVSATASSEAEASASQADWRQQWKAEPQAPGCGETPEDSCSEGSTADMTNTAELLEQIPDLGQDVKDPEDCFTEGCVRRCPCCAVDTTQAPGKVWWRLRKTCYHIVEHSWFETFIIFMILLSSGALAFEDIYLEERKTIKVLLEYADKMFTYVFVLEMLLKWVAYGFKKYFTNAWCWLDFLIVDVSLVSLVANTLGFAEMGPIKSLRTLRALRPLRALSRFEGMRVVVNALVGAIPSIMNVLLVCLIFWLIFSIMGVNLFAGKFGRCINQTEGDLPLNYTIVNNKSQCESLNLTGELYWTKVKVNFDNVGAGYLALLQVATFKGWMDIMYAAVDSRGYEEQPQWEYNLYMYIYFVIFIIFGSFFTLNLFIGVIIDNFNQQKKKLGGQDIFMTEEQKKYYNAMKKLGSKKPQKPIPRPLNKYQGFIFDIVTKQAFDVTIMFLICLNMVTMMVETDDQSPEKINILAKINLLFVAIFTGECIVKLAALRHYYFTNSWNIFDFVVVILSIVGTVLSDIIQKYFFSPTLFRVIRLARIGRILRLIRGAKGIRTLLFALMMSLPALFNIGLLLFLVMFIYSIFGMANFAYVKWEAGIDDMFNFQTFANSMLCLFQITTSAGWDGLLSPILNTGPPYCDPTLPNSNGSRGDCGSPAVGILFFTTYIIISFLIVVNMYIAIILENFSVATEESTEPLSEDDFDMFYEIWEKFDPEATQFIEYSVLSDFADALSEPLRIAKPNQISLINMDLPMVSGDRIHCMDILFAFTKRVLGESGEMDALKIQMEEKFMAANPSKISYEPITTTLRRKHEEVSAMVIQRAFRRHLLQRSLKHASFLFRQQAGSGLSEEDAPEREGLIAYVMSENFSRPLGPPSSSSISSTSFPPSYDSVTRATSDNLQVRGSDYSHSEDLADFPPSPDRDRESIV
Sequence of Acetylcholinesterase (AChE) (P22303 32-614): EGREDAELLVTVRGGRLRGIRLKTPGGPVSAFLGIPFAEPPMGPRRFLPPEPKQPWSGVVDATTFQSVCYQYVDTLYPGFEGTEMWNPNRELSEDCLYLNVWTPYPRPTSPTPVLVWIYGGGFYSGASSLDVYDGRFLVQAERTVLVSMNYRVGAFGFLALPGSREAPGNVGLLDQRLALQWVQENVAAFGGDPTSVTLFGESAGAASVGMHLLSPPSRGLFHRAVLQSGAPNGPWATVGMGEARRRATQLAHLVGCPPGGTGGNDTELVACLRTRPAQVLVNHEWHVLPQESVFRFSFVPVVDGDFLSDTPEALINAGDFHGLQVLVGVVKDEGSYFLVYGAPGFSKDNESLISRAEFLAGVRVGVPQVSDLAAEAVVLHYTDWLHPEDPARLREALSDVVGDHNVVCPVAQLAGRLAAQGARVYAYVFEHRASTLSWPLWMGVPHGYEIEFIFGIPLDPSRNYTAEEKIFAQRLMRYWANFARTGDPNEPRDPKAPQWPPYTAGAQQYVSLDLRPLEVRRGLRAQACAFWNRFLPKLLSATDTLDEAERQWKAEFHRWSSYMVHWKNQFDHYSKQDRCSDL

Take `COc1ccc(C(N)=O)cn1` [JBSNF-000088, 6-methoxynicotinamide]: the “body weight (%)” value in series [1] (50 mg kg^−1 b.i.d. p.o., four weeks, vs vehicle) was “statistically significant reduction”. Besides, in series [1] (50 mg kg^−1 b.i.d. p.o., vs vehicle), the cumulative food intake result is given as “comparable”. The fed plasma insulin entry in series [1] (day 14, p < 0.01 vs HFD control) was “trend to a reduction in fed plasma insulin that was statistically significant on day 14”. Moreover, the fed blood glucose entry in series [1] (day 21, p < 0.01 vs vehicle control) was “statistically significant reduction”. For the same molecule, the oral glucose tolerance entry in series [1] (day 28, normalized to chow control group) is reported as “statistically significant improvement”. Besides, the “AUC blood glucose (OGTT)” value in series [1] (day 28, p < 0.001 vs HFD control) is reported as “Significantly lower”. Also, in series [1] (p < 0.0001 vs HFD control), the “MNA levels in visceral WAT” value is on record as “statistically significant reduction”; the “plasma insulin at 0 and 15 minutes of OGTT” value is listed as “statistically significant lower”. Moreover, in series [1] (p < 0.0001 vs vehicle-treated HFD controls), the HOMA-IR index result is recorded as “statistically significant improvement”. Further, the plasma triglyceride entry in series [1] (p < 0.001 vs HFD control, data not shown) is listed as “statistically significant reduction”. Moreover, the liver triglyceride result in series [1] (p < 0.05 vs HFD control, data not shown) is listed as “statistically significant reduction”. The inhibition at 10 µM in series [2] stood at 2%. For the same molecule, the share remaining at 0.5 h in “in vitro” was more than 70%. In series [3], the “Metabolic stability mouse microsomes (% remaining)” value is recorded as 79%. Further, the IC50 on NNMT came out at 2400 nM. Also, the NaV1.5 inhibition at NaV1.5 is reported as less than 30%. Moreover, in series [4] (10 µM), the “E% (agonistic), ADRB2” value is 1%. The inhibition at 10 µM in series [4] (read-out: I% (antagonistic or inhibitory), ADRB2) came to 1%.
